According to patent US12319752B2, “Heparin-binding cationic peptide self-assembling peptide amphiphiles useful against drug-resistant bacteria” (priority 2016, dated 2025):
Residues, ends and D or L forms follow the SMILES beside them. *: point of attachment. Palmitoyl = CCCCCCCCCCCCCCCC(=O)*

Key:
[1] = system: MDR E. coli; experiment: Bacterial growth inhibition (growth curves, OD562, 20 h); assay type: cell-based, multidrug-resistant E. coli (MDR E. coli, ATCC #BAA-2471)
Procedure: (§1) Gram-positive (S. aureus and MRSA) and Gram-negative (E. coli and MDR E. coli) bacteria were incubated with peptide concentrations ranging from 20 to 100 μM, and time-lapsed bacterial growth was monitored for 20 hours by determining the optical density at 562 nm (O.D. 562 nm). […] At the highest concentration tested (100 μM), the time to exponential growth phase of S. aurues was delayed by about 18 h (FIG. 5B), and was prolonged by almost 13 h for MRSA (FIG. 5A), while bacteria incubated without ACA-PA entered the exponential growth phase within 4 h. Gram-positive bacteria were also susceptible to the ACA-PA even below their CMC.
(§2) The MIC values of ACA-PA towards drug-resistant bacteria were determined after 24 h of incubation (Table 2).
(§3) This assay was performed to investigate the inhibitory effects of each peptide against Gram-positive Staphylococcus aureus (S. aureus, ATCC #25923) and methicillin-resistant S. aureus (MRSA, ATCC #43300), as well as Gram-negative Escherichia coli (E. coli, ATCC #25922), and multidrug-resistant E. coli (MDR E. coli, ATCC #BAA-2471). In all experiments, solutions of each peptide at the concentrations from 20 μM to 100 μM in 3% Tryptic Soy Broth (TSB) media were freshly prepared. A single colony of bacteria was isolated from a stock agar plate and cultured overnight in 4 mL of 3% TSB on a shaking incubator set at 200 rpm and 37° C. The bacteria culture was adjusted to an optical density at 562 nm (OD562) to about 0.52 (10^9 cells/mL), and the resulting bacteria suspension was subsequently diluted to about 10^6 colony forming units (CFU) per mL in each sample. The control samples were bacteria incubated in TSB media without peptides. The bacteria were incubated inside a spectrophotometer (Spectra-Max Paradigm, Molecular Devices, Sunnyvale, CA) at 37° C. under static conditions for 20 h, and the bacterial growth curves were measured in terms of turbidity at OD562 every 2 minutes. The normalized OD562 values of samples were calculated by subtracting the […].

[2] = system: LPS (from Escherichia coli O111:B4); experiment: LPS binding, BODIPY TR cadaverine (BC) probe displacement assay; settings: 20 μM to 100 μM peptide, 100 μg/mL LPS
Procedure: The binding of each peptide at various concentrations to LPS was determined by the capability of displacing the BC probes bound with LPS. The fluorescent BC probe was used as a probe to determine the level of peptide bound with LPS. BC probe binds to native LPS and particularly target the lipid A portion. The fluorescent intensity of BC probe decreases as it binds to LPS. […] For instance, the LPS binding factor of samples containing 60 μM of CVK-PA was as double as the 40 μM sample.
The LPS binding affinity of peptide was examined with the BODIPY TR cadaverine (BC) fluorescent probe displacement assay as previously described. Stock solution of each peptide was diluted to predetermined concentrations with 10 mM HEPES buffer (pH=7.5, Thermo Fisher Scientific, Waltham, MA, USA). […] Followed by incubation for 15 minutes in room temperature, the fluorescent intensity was measured using a spectrophotometer at an excitation wavelength of 580 nm and an emission wavelength of 620 nm. Finally, the LPS binding factor of each sample was calculated using the equation: […]
When peptides bind to LPS and displace the BC probe, fluorescence intensity of the probe is increased. LPS binding affinity of each peptide was then analyzed by the fluorescent intensity of the displaced BC probe. […]

[3] = system: E. coli; experiment: Viable colony count assay (bactericidal effect, 4 h); assay type: cell-based, Escherichia coli (ATCC #25922)
Procedure: The bactericidal effects of the peptides were examined using a viable colony count assay as well as the live/dead staining assay. For the viable colony count assay, bacteria were treated with peptides for 4 h and the resulting viable bacterial density of each sample was expressed by log10[CFU/mL]. For the Gram-positive bacteria tested, the decrease in bacterial density was dependent on the concentration of the ACA-PA (FIG. 8A). […] As for Gram-negative E. coli and MDR E. coli bacteria (FIG. 8B), the ACA nanorods, wherein the PA were added at a concentration above their CMC, had potent bactericidal effects. For example, the ACA nanorods at concentrations over 60 μM reduced the colony forming units of Gram-negative bacteria by about a five log unit reduction after 4 h compared with the untreated negative control sample.
The viable count assay was performed to quantify the bactericidal activity of each peptide. Stock solutions of peptides were diluted in 3% TSB media to concentrations ranging from 20 μM to 100 μM immediately before experiments. Heparin-ACA-PA were also prepared by mixing the ACA-PA stock solution with heparin (sodium salt from porcine intestinal mucosa, Sigma, St. Louis, MO) to 1:1, 1:2 and 1:3 weight ratios in water, and a final concentration of ACA-PA in the heparin-ACA-PA at each heparin weight ratio was adjusted to 80 μM for each experiment. The bacteria (10^6 CFU/mL) were incubated with peptides at 37° C. for 4 h. After incubation, serial dilutions of samples were plated on TSB agar and then incubated at 37° C. overnight. The colonies from each spot were manually counted, and the CFU number for each sample was determined. Experiments were conducted in triplicate and results were expressed as the log 10 values of the CFU number in each sample. Data were expressed by stand error of the mean (±S.E.M.) and N=3, *p<0.05 compared with control samples and #p<0.05 compared with bacteria treated with 40 μM of ACA-PA.

[4] = system: E. coli; experiment: Bacterial growth inhibition (growth curves, OD562, 20 h); assay type: cell-based, Escherichia coli (ATCC #25922)
Procedure: as §1, §2, §3

[5] = system: MRSA; experiment: as above; assay type: cell-based, methicillin-resistant S. aureus (MRSA, ATCC #43300)
Procedure: as §1, §2, §3

[6] = concentrations higher than the CMC (60 μM to 100 μM)
[7] = concentrations lower than the CMC

## CCCCCCCCCCCCCCCC(=O)N[C@H](C(=O)N[C@H](C(=O)N[C@H](C(=O)N[C@H](C(=O)N[C@@H](CCCCN)C(=O)N[C@@H](CCCCN)C(=O)N[C@@H](CCCCN)C(=O)N[C@@H](CCCCN)C(=O)NCC(=O)N[C@@H](C)C(=O)N[C@@H](CCCCN)C(=O)N[C@@H](CCCCN)C(=O)N[C@@H](C)C(=O)N[C@@H](CCCNC(=N)N)C(=O)N[C@@H](C)C(=O)N[C@@H](C)C(=O)N[C@@H](CCCCN)C(=O)N[C@@H](CCCCN)C(=O)N[C@@H](C)C(=O)N[C@@H](CCCNC(=N)N)C(=O)N[C@@H](C)C(=O)O)C(C)C)C(C)C)C(C)C)C(C)C [ACA-PA, C16-V4K4G(AKKARA)2 (SEQ ID NO: 7)] (Palmitoyl-VVVVKKKKGAKKARAAKKARA-OH; N-terminus and C-terminus assumed)
[1]; 20 to 100 μM, 20 h
  bacterial growth inhibition: remarkably inhibited the proliferation
[1]; [6]
  bacterial proliferation: significantly suppressed
[1]; [7]
  bacterial growth inhibition: did not significantly inhibit bacterial growth
[1]; over 80 μM
  bacterial growth: no bacteria growth was observed
[2]
  LPS binding factor: highest LPS binding capability among the peptides investigated
[3]; E. coli (Gram-negative), 60 to 100 μM
  decrease in bacteria density: 10,000 fold
[3]; E. coli, concentrations lower than CMC, 4 h
  reduction in bacteria density: no significant reduction in Gram-negative bacteria density
[3]; E. coli, over 60 μM, 4 h, vs untreated control
  reduction of colony forming units: five
[4]; 20 to 100 μM, 20 h
  bacterial growth inhibition: remarkably inhibited the proliferation
[4]; [6]
  bacterial proliferation: significantly suppressed
[4]; [7]
  bacterial growth inhibition: did not significantly inhibit bacterial growth
[5]; 100 μM
  prolongation of time to exponential growth phase: ~13 h
[5]; 20 to 100 μM, 20 h
  bacterial growth inhibition: remarkably inhibited the proliferation
[5]; below the CMC
  susceptibility of bacterial growth: susceptible
